Results on 6 molecules are retold here after paper PMC3907362, “Synthetic cationic antimicrobial peptides bind with their hydrophobic parts to drug site II of human serum albumin” (BMC Structural Biology, 2014).

Test [1] deals with T1, human serum albumin (HSA) (Homo sapiens, UniProt P02768). Description: Non-competitive isothermal titration calorimetry (ITC). As to conditions: for Kd: pH 7.4. On the procedure:
The experiments were either performed on a CSC 5300 Nano-Isothermal Titration Calorimeter III (Calorimetry Sciences Corporation, Utah, USA) with a cell volume of 1 mL, or a MicroCal™ iTC200 with a cell volume of 200 μL (MicroCal, LLC., Northampton, MA, USA). In all experiments lyophilized HSA ~99% essential fatty acid and globulin free (Sigma A3782), was weighed out to a nominal concentration and dissolved prior to the experiments in buffer 50 mM Tris, 10 mM CaCl2, pH 7.4 at 25°C. All ligands and peptides were dissolved in the same buffer. Control titrations of ligand into buffer were performed in duplicate to investigate if the heat of dilution would generate a significant signal, and if ligand-ligand interactions were present in the competitive experiments. The same settings as for the corresponding ligand-HSA experiments were applied in the control experiments.
A stirring rate of 150 rpm and an isotherm temperature of 25°C were applied. The response signal was measured at 1 s intervals, and a 200 s baseline was collected prior to the first injection for the purpose of assessing the baseline. Non-competitive experiments were carried out either in duplicates or triplicates. […] In total 40 consecutive injections were performed with a volume of 5 μL and a spacing of 300 s. […] Prior to the first injection, a baseline of 100 s was recorded to ensure instrument stability. The solution was stirred at 150 rpm, and the isothermal temperature set to 25°C. All competitive experiments were carried out in duplicate. […] The first injection was set to a dummy volume of 0.1 μL due to syringe leakage in the baseline equilibration step. An initial delay of 180 s was set to sample the baseline. The applied reference power was 6 μcal/s and an isothermal temperature of 25°C was used. […] For the selected peptides CAP 3 and CAP 5 competitive experiments with reversed order of the reference ligands and the CAP were performed as a control of titration order. The same ITC settings were applied for the non-competitive and competitive experiments with the MicroCal™ iTC200.
The ITC data was analyzed using the NanoAnalyse software from TA Instruments, v2.0.1 (Waters LLC, New Castle, DE, US) or Origin® 7.0. Independent model fit was used to generate the binding isotherm, and the first injection in all titration experiments was omitted in the binding isotherm analysis. The heat of dilution and unspecific binding signal corresponding to the last injection in each experiment was subtracted from all of the heat signals. The quality of the model fit was examined using the statistical modules of the software, the 95% confidence interval based on a 1000 trial calculations in the NanoAnalyze package, and the default non-weighted least square calculation in Origin® 7.0.

The target of test [2] is T1, human serum albumin (HSA). Also noted: purchased Sigma A3782. As to conditions: HSA drug site II; ref [34],[35]; read-out: binding affinity (Kd), reported in other studies; cited from earlier work.
Another test has as its target HSA (Homo sapiens, UniProt P02768). Description: NMR WaterLOGSY. Type of test: binding. Conditions: HSA:ligand 1:20. The source says:
All NMR experiments were acquired on an Agilent (Varian) inova spectrometer operating at 599.934 MHz for ^1H, equipped with a 2nd generation inverse triple resonance HCN cold probe. […] The difference spectra were produced by internal subtraction and all spectra were acquired with both sculpted solvent suppression during the PFG spin echo and 500 ms solvent presaturation during the relaxation delay. The protein signals were suppressed by a 10 ms T1ρ-spinlock. Finally, the spectra were multiplied with a 3 Hz exponential window function. For reference, double PFG spin echo 1D proton spectra were acquired using the same parameters, including the 10 ms T1ρ-spinlock for protein suppression. […] All samples were monitored for line broadening, quickened relaxation and NOE inversion to spot any direct interaction between ligands before the addition of HSA.

Test [3] deals with Staphylococcus aureus strain ATCC 25923. Type of test: cell-based. Here is the method:
(§1) The antibacterial activity of CAP 1 and CAP 5 were tested towards Staphylococcus aureus strain ATCC 25923, methicillin resistant Staphylococcus aureus strain ATCC 33591 and Escherichia coli strain ATCC 25922. The studies were performed by Toslab AS employing standard methods.

Test [4] has as its system Methicillin resistant Staphylococcus aureus ATCC 33591. It is filed as cell-based. Here is the method:
as §1

Test [5] concerns Escherichia coli ATCC 25922. It is filed as cell-based. On the procedure:
as §1

The test system of the next test is selected bacteria. Description: MIC towards selected bacteria, summary over strains. Type of test: cell-based. Conditions: all bacterial strains tested. Here is the method: as §1
Setting [6] is: Kd, CSC 5300 Nano-Isothermal Titration Calorimeter III, 25°C.
The mark [7] stands for this setting: CSC 5300 Nano-Isothermal Titration Calorimeter III.
Where [8] appears, read: Kd, MicroCal iTC200 (values in parenthesis), 25°C.
The mark [9] stands for this setting: MicroCal iTC200 (values in parenthesis).

“And” between values parts separate entries of the source, which are not always exact repeats. Equal entries are not always repeated. “Also recorded” adds a separate entry of the source. Where two headings read alike, the source gives them in different places. Residues, ends and D or L forms follow the SMILES beside them.

Sequence of HSA (P02768 25-609): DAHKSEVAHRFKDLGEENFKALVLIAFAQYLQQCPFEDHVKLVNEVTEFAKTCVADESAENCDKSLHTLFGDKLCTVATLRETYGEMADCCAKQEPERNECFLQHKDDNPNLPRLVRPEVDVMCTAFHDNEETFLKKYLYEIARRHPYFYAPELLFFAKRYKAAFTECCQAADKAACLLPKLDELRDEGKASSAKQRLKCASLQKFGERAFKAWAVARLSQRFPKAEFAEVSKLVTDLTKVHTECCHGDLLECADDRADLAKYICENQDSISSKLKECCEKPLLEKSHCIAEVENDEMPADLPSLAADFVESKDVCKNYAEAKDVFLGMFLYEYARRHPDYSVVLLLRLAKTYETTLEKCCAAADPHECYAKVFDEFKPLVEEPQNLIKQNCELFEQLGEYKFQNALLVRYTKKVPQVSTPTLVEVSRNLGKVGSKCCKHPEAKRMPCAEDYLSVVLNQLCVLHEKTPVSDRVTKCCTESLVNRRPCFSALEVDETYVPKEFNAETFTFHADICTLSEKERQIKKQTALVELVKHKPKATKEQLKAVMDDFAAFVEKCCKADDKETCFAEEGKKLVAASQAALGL
T1 sequence (P02768 25-609): as above

On to `N=C(N)NCCC[C@H](NC(=O)[C@H](Cc1c[nH]c2ccccc12)NC(=O)[C@@H](N)CCCNC(=N)N)C(=O)NCc1ccccc1` [CAP 2] (HELM PEPTIDE1{R.W.R.[c1ccc(CN[*:1])cc1]}$$$$V2.0), for which the affinity in test [1] (setting [6]), expressed as Kd, was 23 ± 8 µM.
`CC(C)(C)c1cc(C(C)(C)C)c2[nH]c(C(C)(C)C)c(C[C@H](NC(=O)[C@@H](N)CCCNC(=N)N)C(=O)N[C@@H](CCCNC(=N)N)C(=O)NCc3ccccc3)c2c1` [CAP 4]: the Kd in test [1] (setting [6]) came to 25 ± 9 µM.
As for `CN(C)c1cccc2c(S(=O)(=O)NCC(=O)O)cccc12` [Dgly, dansylglycine], the Kd in test [2] was 1.7 to 3.2 µM; in test [1] (setting [6]), 11 ± 4 µM; in test [1] (setting [8]), 40 µM. In addition, the “WaterLOGSY binding to HSA” value at HSA is listed as “clear WaterLOGSY effect”. Moreover, the TΔS in test [1] (setting [7]) is 2.3 ± 0.5 kcal/mol; in test [1] (setting [9]), 0.5 ± 0.1 kcal/mol. The results for the “n (stoichiometric ratio)” value in test [1] (setting [7]) and in test [1] (setting [9]) were 1.08 ± 0.05 and 1.16 ± 0.01, respectively. The ΔH is recorded as -4.5 ± 0.3 kcal/mol in test [1] (setting [7]) and -5.5 ± 0.1 kcal/mol in test [1] (setting [9]). Also, in test [1] (setting [9]), the ΔG is -6.0 kcal/mol and -6.00 ± 0.02 kcal/mol.
Take `N=C(N)NCCC[C@H](NC(=O)[C@H](Cc1ccc(-c2ccccc2)cc1)NC(=O)[C@@H](N)CCCNC(=N)N)C(=O)NCc1ccccc1` [CAP 3] (HELM PEPTIDE1{R.[O=C([C@H](Cc1ccc(-c2ccccc2)cc1)N[*:1])[*:2]].R.[c1ccc(CN[*:1])cc1]}$$$$V2.0): the Kd was 22 ± 9 µM in test [1] (setting [6]) and 99 µM in test [1] (setting [8]).
Turning to `C[C@H](N)C(=O)N[C@@H](Cc1ccc(-c2ccccc2)cc1)C(=O)N[C@@H](C)C(N)=O` [CAP 5], the “MIC S. aureus” value in test [3] was over 523 µM. In test [4], the “MIC MRSA” value was over 523 µM. Also, the “MIC E. coli” value in test [5] was over 523 µM. Moreover, the Kd in test [1] (setting [8]) is 100 µM.
As to `C[C@H](NC(=O)[C@@H](N)CCCNC(=N)N)C(=O)N[C@@H](CCCNC(=N)N)C(N)=O` [CAP 1] (H-Arg-Ala-Arg-NH2), in test [3], the “MIC S. aureus” value is over 499 µM. For the same molecule, the “MIC MRSA” value in test [4] was over 499 µM. Besides, the “MIC E. coli” value in test [5] is over 499 µM. Further, in the test with selected bacteria, the “Antimicrobial activity (MIC relative to threshold)” value was “inactive”. For the same molecule, at HSA, the “WaterLOGSY binding to HSA” value is “does not interact directly with HSA and does not and not”. Further, in test [1] (non-competitive ITC), the “Binding to HSA by ITC, in words” value is “did not bind to HSA; also recorded: does not bind to HSA”. Further, the Kd entry in test [1] was “-”.
